The results in this text go back to publication PMC10482914, “Molecular architecture and electron transfer pathway of the Stn family transhydrogenase” (Nature Communications, 2023).

Experiment [1] deals with T1, StnABC complex (FMN / NAD(H) site in StnB) (Sporomusa ovata, UniProt A0A0U1KYM9).
T1 construct: gene SpAn4DRAFT_2936; same complex as P1, other site; native purification from S. ovata, untagged; tetramer of StnABC heterotrimers; mildly BS3-crosslinked for cryo-EM; with Electron-bifurcating transhydrogenase subunit StnA (HydC / NuoE-like, thioredoxin-like [2Fe-2S] subunit)
T1 sequence (A0A0U1KYM9 1-584): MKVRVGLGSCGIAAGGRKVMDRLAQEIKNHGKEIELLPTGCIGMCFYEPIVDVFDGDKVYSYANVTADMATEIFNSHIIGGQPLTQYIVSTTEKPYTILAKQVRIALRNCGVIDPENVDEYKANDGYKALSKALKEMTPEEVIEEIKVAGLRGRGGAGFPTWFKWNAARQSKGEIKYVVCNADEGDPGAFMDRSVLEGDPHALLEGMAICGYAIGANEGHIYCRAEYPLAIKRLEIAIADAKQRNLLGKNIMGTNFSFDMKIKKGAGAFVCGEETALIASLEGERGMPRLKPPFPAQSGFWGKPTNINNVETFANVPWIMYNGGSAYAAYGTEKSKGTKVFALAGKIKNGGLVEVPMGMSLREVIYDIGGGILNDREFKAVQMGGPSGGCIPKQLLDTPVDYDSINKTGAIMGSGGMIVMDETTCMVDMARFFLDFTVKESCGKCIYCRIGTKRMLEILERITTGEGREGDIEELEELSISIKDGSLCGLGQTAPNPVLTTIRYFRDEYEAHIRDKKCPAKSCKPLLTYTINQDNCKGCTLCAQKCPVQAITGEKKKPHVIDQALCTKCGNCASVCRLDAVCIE
T1 sequence (A0A0U1KYW8 1-178 partner): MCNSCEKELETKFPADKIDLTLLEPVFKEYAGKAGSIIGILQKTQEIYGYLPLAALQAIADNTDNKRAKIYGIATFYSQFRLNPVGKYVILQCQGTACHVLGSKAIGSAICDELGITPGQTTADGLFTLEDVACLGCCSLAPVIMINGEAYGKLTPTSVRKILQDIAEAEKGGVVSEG
T1 sequence (A0A0U1KYI6 1-1172 partner): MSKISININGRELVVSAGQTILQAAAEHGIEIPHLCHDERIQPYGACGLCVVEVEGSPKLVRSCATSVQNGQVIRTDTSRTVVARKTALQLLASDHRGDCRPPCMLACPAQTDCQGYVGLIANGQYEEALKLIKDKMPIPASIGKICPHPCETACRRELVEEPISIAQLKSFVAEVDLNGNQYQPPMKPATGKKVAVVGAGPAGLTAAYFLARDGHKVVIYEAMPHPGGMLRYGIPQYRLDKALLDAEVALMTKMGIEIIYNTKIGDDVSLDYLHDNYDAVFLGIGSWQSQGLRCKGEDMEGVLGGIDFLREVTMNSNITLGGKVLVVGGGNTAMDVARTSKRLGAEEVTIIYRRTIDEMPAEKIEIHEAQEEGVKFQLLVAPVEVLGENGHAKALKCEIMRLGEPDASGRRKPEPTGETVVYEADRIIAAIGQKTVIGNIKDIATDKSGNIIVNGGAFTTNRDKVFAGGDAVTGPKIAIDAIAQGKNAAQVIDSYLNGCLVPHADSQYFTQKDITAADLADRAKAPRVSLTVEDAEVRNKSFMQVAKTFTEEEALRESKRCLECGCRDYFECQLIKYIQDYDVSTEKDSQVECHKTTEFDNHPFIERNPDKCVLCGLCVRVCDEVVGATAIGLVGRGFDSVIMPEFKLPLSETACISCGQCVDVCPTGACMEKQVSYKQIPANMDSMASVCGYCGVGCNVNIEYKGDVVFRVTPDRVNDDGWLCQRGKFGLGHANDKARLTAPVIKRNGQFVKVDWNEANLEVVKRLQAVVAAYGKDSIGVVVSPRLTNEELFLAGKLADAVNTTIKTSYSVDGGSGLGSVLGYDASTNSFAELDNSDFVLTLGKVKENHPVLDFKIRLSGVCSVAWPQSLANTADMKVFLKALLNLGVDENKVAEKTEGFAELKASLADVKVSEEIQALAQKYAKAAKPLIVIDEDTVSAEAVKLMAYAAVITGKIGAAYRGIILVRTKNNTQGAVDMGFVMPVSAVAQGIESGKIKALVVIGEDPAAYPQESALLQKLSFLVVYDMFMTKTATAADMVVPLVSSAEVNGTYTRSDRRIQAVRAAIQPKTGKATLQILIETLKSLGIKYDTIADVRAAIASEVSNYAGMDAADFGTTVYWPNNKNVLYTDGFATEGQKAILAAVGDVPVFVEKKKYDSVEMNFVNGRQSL
The experiment is described as follows: spectrophotometric, […] nm. In kind it is biochemical. The note with it: 0.25 mM NADH, 0.5 mM NADP+, 30 uM reduced ferredoxin; pH 8, 50 C.

For experiment [2], the target named is T2, StnABC complex (FAD / NADP(H) site in StnC) (Sporomusa ovata, UniProt A0A0U1KYI6).
T2 construct: gene SpAn4DRAFT_2937; native purification from S. ovata cytoplasm, untagged; tetramer of StnABC heterotrimers (D2); StnC 1172 amino acids; mildly BS3-crosslinked for cryo-EM; with Electron-bifurcating transhydrogenase subunit StnB (HydB / NuoF-like subunit); Electron-bifurcating transhydrogenase subunit StnA (HydC / NuoE-like, thioredoxin-like [2Fe-2S] subunit)
T2 sequence (A0A0U1KYI6 1-1172): T1 sequence (A0A0U1KYI6 1-1172 partner)
T2 sequence (A0A0U1KYM9 1-584 partner): T1 sequence (A0A0U1KYM9 1-584)
T2 sequence (A0A0U1KYW8 1-178 partner): T1 sequence (A0A0U1KYW8 1-178 partner)
In words: spectrophotometric, […] nm. In kind it is biochemical. The note with it: 0.5 mM NADP+, 0.25 mM NADH, 30 uM reduced ferredoxin; pH 8, 50 C.

Experiment [3] deals with StnC subunit of the StnABC transhydrogenase complex from Sporomusa ovata (Sporomusa ovata). In words: cryo-EM structure; single-particle cryo-EM of the natively purified StnABC complex, mildly cross-linked, anoxic; state S1 without added FMN and substrates (3.2 Å) and state S2 with 10 µM FMN, 500 µM NAD+, 30 µM Fd, 500 µM NADPH (3.0 Å); D2 symmetry.

As for `NC(=O)C1=CN([C@@H]2O[C@H](COP(=O)(O)OP(=O)(O)OC[C@H]3O[C@@H](n4cnc5c(N)ncnc54)[C@H](O)[C@@H]3O)[C@@H](O)[C@H]2O)C=CC1` [NADH], the “spectrophotometric, 340 nm” value in experiment [1] is “catalysed the Fdred and NADH-dependent reduction of NADP^+”.
In the case of `NC(=O)c1ccc[n+]([C@@H]2O[C@H](COP(=O)(O)OP(=O)(O)OC[C@H]3O[C@@H](n4cnc5c(N)ncnc54)[C@H](OP(=O)(O)O)[C@@H]3O)[C@@H](O)[C@H]2O)c1` [NADP^+], in experiment [2], the “spectrophotometric, 340 nm” value is “catalysed the Fdred and NADH-dependent reduction of NADP^+”.
As to “StnC subunit of the StnABC transhydrogenase complex from Sporomusa ovata (natural protein)”, the stoichiometry N in experiment [3] came out at 4.
